Measurements as given in ChEMBL document CHEMBL1144455, “A small molecule-kinase interaction map for clinical kinase inhibitors” (Nat Biotechnol, 2005).
pKd: −log10 of the molar value.

Key:
[1] = biological target: Phosphorylase b kinase gamma catalytic chain, skeletal muscle/heart isoform (Homo sapiens, UniProt Q16816)
[2] = biological target: T1, Serine/threonine-protein kinase 3 (Mus musculus, UniProt Q9JI10)
T1 sequence (Q9JI10 whole entry): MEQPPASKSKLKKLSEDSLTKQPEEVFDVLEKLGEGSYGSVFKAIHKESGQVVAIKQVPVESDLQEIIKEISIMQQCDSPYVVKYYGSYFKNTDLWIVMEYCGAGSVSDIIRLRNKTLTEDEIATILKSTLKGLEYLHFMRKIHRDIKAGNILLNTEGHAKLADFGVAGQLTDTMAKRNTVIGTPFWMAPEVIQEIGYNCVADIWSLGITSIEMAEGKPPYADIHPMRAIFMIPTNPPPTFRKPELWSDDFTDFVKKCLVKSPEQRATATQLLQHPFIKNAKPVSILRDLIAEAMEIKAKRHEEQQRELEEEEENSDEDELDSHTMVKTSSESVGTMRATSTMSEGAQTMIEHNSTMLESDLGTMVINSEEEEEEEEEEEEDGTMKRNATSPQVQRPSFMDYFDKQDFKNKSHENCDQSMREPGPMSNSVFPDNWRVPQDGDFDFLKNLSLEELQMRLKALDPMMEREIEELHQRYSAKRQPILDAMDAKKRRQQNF

[3] = biological target: Tyrosine-protein kinase FRK (Homo sapiens, UniProt P42685)
Tyrosine-protein kinase FRK, sequence (P42685 whole entry): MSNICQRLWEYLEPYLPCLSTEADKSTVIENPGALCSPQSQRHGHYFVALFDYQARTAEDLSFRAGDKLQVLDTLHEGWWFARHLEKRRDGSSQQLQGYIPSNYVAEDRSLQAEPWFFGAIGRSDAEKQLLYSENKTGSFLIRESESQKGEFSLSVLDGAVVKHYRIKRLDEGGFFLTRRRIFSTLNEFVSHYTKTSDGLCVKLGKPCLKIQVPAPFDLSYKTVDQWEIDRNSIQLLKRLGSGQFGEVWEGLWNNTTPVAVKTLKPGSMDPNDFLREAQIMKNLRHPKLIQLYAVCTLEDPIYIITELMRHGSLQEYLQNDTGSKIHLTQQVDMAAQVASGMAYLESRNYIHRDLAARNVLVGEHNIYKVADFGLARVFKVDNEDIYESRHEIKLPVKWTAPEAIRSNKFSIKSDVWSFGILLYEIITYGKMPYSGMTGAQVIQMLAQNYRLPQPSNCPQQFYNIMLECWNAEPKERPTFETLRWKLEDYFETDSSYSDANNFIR

[4] = biological target: T2, Serine/threonine-protein kinase PLK4 (Homo sapiens, UniProt O00444)
T2 sequence (O00444 whole entry): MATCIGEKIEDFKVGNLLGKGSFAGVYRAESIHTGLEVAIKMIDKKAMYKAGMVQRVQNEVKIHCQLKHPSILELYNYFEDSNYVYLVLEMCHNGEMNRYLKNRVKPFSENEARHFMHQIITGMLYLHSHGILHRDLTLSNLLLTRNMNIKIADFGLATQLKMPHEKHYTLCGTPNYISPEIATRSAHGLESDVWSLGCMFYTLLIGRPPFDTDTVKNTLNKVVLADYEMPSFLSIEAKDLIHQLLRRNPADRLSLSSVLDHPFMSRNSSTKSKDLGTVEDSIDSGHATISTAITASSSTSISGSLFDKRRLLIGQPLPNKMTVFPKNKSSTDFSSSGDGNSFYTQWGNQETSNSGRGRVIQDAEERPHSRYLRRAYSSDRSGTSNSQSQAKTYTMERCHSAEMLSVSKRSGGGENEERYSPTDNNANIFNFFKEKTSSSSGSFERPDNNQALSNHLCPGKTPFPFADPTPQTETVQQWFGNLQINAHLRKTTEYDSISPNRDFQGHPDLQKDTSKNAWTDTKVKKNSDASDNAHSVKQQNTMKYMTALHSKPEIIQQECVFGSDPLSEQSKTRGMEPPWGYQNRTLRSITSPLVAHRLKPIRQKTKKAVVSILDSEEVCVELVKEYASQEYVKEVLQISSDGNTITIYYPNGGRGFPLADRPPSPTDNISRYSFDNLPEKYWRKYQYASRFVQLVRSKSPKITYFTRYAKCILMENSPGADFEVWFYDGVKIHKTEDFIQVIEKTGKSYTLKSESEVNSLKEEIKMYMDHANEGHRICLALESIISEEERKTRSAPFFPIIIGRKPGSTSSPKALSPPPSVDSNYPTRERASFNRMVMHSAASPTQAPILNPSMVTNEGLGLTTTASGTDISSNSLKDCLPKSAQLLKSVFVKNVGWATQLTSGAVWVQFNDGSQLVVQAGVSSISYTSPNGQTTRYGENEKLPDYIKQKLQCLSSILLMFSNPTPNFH

[5] = biological target: T3, Serine/threonine-protein kinase ULK3 (Mus musculus, UniProt Q3U3Q1)
T3 sequence (Q3U3Q1 whole entry): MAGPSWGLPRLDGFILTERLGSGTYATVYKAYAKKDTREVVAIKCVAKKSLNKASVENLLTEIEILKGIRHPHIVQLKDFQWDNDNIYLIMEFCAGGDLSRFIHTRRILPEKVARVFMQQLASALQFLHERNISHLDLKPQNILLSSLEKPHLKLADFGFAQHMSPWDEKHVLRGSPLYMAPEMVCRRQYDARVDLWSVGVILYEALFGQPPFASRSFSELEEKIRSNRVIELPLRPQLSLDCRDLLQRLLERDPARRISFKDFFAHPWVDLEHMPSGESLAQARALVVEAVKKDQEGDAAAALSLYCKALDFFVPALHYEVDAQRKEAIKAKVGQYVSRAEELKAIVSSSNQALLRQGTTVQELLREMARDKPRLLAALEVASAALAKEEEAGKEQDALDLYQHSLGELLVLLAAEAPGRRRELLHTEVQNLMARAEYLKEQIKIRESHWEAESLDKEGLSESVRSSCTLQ

[6] = biological target: Death-associated protein kinase 2 (Homo sapiens, UniProt Q9UIK4)
Death-associated protein kinase 2, sequence (Q9UIK4 whole entry, canonical isoform): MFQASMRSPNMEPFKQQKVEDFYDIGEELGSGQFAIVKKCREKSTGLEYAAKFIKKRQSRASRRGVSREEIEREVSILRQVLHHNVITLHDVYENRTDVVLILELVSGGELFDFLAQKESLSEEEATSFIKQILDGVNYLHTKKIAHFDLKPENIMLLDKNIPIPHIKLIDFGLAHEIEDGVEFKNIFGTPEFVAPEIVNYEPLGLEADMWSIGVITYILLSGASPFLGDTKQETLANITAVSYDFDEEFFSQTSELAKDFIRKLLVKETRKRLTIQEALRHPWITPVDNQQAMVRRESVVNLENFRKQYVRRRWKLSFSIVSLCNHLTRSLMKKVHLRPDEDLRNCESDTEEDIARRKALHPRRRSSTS

[7] = biological target: Casein kinase I isoform gamma-1 (Homo sapiens, UniProt Q9HCP0)
Casein kinase I isoform gamma-1, sequence (Q9HCP0 whole entry, canonical isoform): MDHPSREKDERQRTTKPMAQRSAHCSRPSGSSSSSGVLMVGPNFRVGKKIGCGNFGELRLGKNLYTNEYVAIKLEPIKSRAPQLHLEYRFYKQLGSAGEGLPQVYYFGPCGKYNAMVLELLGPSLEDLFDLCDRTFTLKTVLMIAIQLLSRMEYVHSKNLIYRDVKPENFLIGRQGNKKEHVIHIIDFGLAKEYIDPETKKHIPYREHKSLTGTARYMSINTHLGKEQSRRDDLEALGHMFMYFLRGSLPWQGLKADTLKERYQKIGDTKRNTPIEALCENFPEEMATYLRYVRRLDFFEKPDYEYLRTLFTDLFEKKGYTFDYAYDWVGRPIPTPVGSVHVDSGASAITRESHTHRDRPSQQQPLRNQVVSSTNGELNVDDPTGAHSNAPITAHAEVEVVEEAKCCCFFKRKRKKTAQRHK

Aurora kinase C = biological target: T4, Aurora kinase C (Homo sapiens, UniProt Q9UQB9)
T4 sequence (Q9UQB9 whole entry): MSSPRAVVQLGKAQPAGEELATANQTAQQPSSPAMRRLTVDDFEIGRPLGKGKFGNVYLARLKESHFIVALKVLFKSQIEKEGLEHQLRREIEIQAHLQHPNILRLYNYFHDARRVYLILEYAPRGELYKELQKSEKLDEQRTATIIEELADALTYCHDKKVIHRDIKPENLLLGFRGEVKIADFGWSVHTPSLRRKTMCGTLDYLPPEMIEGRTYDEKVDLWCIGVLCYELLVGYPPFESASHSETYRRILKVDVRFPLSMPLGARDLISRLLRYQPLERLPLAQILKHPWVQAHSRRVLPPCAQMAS

[8] = biological target: BMP-2-inducible protein kinase (Homo sapiens, UniProt Q9NSY1)
BMP-2-inducible protein kinase, sequence (Q9NSY1 whole entry): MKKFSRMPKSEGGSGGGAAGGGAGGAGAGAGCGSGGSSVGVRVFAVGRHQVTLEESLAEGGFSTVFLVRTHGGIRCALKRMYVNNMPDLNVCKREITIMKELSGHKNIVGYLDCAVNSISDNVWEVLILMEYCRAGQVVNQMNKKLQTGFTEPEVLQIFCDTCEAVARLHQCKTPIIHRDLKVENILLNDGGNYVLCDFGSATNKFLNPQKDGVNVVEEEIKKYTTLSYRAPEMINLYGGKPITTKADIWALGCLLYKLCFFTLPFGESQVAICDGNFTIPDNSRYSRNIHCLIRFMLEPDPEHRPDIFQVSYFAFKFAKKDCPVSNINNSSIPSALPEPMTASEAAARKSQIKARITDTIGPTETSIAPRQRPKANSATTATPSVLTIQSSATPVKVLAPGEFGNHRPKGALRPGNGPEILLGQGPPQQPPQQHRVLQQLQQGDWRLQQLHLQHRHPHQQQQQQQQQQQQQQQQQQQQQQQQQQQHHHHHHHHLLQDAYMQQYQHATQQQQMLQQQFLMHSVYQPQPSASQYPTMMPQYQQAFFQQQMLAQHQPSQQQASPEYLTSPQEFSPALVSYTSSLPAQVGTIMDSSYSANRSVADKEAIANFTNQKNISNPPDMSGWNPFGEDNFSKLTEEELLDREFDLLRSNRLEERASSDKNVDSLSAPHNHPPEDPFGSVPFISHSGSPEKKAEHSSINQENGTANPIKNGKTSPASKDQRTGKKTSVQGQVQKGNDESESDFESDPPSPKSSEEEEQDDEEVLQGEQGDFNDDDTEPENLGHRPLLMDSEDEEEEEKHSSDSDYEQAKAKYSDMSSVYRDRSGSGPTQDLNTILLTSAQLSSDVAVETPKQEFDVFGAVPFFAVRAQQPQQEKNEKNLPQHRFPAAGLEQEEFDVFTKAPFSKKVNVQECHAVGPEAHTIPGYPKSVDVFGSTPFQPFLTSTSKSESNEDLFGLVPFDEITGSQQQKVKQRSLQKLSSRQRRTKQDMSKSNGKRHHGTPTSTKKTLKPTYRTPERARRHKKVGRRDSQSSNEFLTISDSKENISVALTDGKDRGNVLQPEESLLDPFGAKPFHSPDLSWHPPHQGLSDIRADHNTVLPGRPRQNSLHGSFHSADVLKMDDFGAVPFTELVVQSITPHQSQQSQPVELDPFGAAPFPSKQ

[9] = biological target: Calcium/calmodulin-dependent protein kinase type 1 (Homo sapiens, UniProt Q14012)
Calcium/calmodulin-dependent protein kinase type 1, sequence (Q14012 whole entry): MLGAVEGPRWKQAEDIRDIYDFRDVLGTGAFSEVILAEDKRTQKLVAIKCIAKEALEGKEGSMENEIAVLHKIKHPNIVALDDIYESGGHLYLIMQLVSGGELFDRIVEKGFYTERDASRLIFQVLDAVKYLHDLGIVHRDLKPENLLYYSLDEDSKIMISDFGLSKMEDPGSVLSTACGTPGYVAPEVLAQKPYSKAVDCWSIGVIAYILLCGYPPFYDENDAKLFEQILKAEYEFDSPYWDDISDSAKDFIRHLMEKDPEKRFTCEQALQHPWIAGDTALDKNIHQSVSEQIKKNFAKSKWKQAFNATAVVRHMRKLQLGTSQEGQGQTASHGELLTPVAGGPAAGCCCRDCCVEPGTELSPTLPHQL

Phosphorylase b kinase gamma catalytic chain, skeletal muscle/heart isoform, sequence (Q16816 whole entry, canonical isoform): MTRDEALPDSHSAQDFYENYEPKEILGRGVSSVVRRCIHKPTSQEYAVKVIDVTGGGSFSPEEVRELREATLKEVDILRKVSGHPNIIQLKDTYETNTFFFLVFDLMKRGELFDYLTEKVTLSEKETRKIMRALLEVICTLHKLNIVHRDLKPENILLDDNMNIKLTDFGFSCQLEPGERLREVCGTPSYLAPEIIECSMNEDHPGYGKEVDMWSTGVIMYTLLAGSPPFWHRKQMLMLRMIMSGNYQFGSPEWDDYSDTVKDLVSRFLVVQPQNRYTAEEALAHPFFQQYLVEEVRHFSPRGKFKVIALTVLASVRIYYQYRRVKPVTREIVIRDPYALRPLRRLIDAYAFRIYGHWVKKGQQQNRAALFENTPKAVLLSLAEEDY

| Structure (SMILES) | pKd [1] | pKd [2] | pKd [3] | pKd [4] | pKd [5] | pKd [6] | pKd [7] | pKd (Aurora kinase C) | pKd [8] | pKd [9] |
| --- | --- | --- | --- | --- | --- | --- | --- | --- | --- | --- |
| CCOc1cc2ncc(C#N)c(Nc3ccc(F)c(Cl)c3)c2cc1NC(=O)/C=C/CN(C)C [PELITINIB] | 5.82 | 5.96 | – | – | – | – | – | – | – | – |
| Oc1ccc(-c2nc(-c3ccc(F)cc3)c(-c3ccncc3)[nH]2)cc1 [SB-202190] | – | – | 5.22 | – | – | – | – | – | – | – |
| Oc1c2ccccc2c2c3c(cccc13)N=N2 [SP-600125] | – | 6.66 | – | 6.11 | 6.17 | 6.21 | 5.43 | 5.28 | 7.60 | 5.39 |
